Reference: patent publication US12653809B2, “Urea, amide, and substituted heteroaryl compounds for CBL-B inhibition” (Nurix Therapeutics, Inc., priority 2019, dated 2026)
Where two headings read alike, the source gives them in different places.

Target: T1, Cbl-b (truncated variant, UniProt number Q13191) (Homo sapiens, UniProt Q13191)
T1 construct: made in house
Experiment: Cbl-b activity assay (TR-FRET, interaction of Cbl-b with UbcH5B-Ub)
Format: biochemical
Excerpt: As described in Biological Example 1A, a Cbl-b activity assay (Cbl-b inhibition assay) used to measure the IC50 values for Cbl-b inhibition uses a mixture comprising candidate compound, Cbl-b (truncated, with an Avitag, and biotinylated), a fluorescently-labeled E2 enzyme UbcH5B labelled with ubiquitin conjugated to BODIPY-fluorescein (UbcH5B-Ub), streptavidin-terbium, and assay buffer. In one embodiment, the Cbl-b activity assay (Cbl-b inhibition assay) used to measure IC50 for inhibition of Cbl-b uses the conditions described in Biological Example 1A with 12 nM Cbl-b. […] In another embodiment, the Cbl-b activity assay (Cbl-b inhibition assay) used to measure IC50 for inhibition of Cbl-b uses the conditions described in Biological Example 1B, with candidate compound, 0.125 nM Cbl-b (truncated, with an avitag, and biotinylated), fluorescently labelled inhibitor probe, and assay buffer. Displacement of the inhibitor probe indicates Cbl-b activity.
Candidate compounds isolated from screening assays were evaluated for their ability to bind and inhibit Cbl-b, an E3 ubiquitin-protein ligase.
The ability of candidate compounds to inhibit Cbl-b activity was measured by monitoring the interaction of Cbl-b with UbcH5B-Ub in the presence of the candidate compound. A truncated variant of Cbl-b (UniProt number Q13191; SEQ ID NO:1) containing an Avitag at its N-terminus was co-expressed with BirA biotin ligase and purified using a standard protocol (see Dou et al., Nature Structural and Molecular Biology 8: 982-987, 2013; Avidity LLC).
Fluorescently labeled UbcH5B-Ub was prepared by conjugating ubiquitin (Ub), labeled at its N-terminus with Bodipy-Fluorescein, to UbcH5B, an E2 enzyme, harboring a cysteine to lysine mutation at position 85. This mutation is similar to a mutation that was previously reported (see Dou et al., Nature Structural and Molecular Biology 8: 982-987, 2013). Cbl-b activity assays were performed in a 384-well plate at room temperature in a 10 μL reaction volume by pre-incubating 12 nM Cbl-b (final concentration) in an assay buffer containing 50 mM HEPES pH 7.0, 100 mM NaCl, 0.01% Triton X-100, 0.01% BSA, and 1 mM DTT in the presence of a candidate compound in 1% DMSO (final concentration, High Conditions) for one hour. After incubation in the presence of the candidate compound, the plate was incubated for an additional 1.5 hours in the presence of 60 nM Src kinase with 1 mM ATP and 5 mM MgCl2 (final concentrations). Alternatively, compounds were tested as described above with assay buffer containing 50 mM NaCl instead of 100 mM NaCl and 30 nM Src kinase instead of 60 nM Src kinase (Low Conditions). Src kinase was prepared as previously described (see Kobashigawa et al., Proc Natl Acad Sci USA, 108: 20579-20584, 2011). […] The plate was incubated for one hour. Following the one hour incubation, the plates were read for TR-FRET signal at 520/620 nm using Envision plate reader (Perkin Elmer). The presence of a FRET signal that indicated Cbl-b was not inhibited by the compound candidate. The absence of a FRET signal indicated Cbl-b was inhibited by the compound candidate and was therefore a Cbl-b inhibitor.
The resulting data for the Cbl-b activity assays were analyzed using standard methods to report the IC50 values of the tested compounds (Tables 3-4). The resulting data for the Cbl-b binding assay was solvent corrected and double-referenced prior to analysis. All data were globally fit to a steady-state affinity and kinetic binding model where applicable. Compounds were ranked into bins A through D as follows for IC50: A indicates <0.1 μM, B indicates 0.1 μM≤IC50<1 μM, C indicates 1 μM≤IC50<5 μM, and D indicates 5 μM≤IC50.

[1] = Biological Example 1A, low or high conditions not stated, read-out: IC50 values in the Cbl-b inhibition assay of Biological Example 1A
[2] = high conditions: 100 mM NaCl, 60 nM Src kinase, 12 nM Cbl-b, read-out: Cbl-b activity IC50

T1 sequence (Q13191 36-427): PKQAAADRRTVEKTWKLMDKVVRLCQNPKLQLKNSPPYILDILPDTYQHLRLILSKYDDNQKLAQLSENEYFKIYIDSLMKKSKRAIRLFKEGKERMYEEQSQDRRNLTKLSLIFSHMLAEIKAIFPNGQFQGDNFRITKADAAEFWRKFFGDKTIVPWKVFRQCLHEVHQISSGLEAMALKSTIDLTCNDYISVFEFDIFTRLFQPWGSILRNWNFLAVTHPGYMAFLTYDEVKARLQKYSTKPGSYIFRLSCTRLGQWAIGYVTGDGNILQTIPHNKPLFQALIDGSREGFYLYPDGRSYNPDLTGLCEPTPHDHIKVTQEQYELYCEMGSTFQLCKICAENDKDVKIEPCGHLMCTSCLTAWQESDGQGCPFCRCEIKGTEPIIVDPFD

IC50 [1]	IC50 [2]	IC50 (low conditions: 50 mM NaCl, 30 nM Src kinase, 12 nM Cbl-b, read-out: Cbl-b activity IC50)	SMILES
1 to 5 µM	1 to 5 µM	–	C[C@H](Sc1nncn1C)c1cccc(-n2ncc(-c3cccc(C(=O)O)c3)n2)c1 [Example 90, (S)-3-(2-(3-(1-(4-methyl-4H-1,2,4-triazol-3-ylthio)ethyl)phenyl)-2H-1,2,3-triazol-4-yl)benzoic acid]
–	≥ 5 µM	–	C[C@H](Sc1nncn1C)c1cccc(NC(=O)Nc2ccc(S(=O)(=O)N(C)C)cc2)c1 [Example 158, (S)—N,N-dimethyl-4-(3-(3-(1-((4-methyl-4H-1,2,4-triazol-3-yl)thio)ethyl)phenyl)ureido)benzenesulfonamide]
–	0.1 to 1 µM	–	C[C@H](Cc1nncn1C)c1cccc(-c2cc(-c3ncccn3)n[nH]2)c1 [Example 106, (R)-2-(3-(3-(1-(4-methyl-4H-1,2,4-triazol-3-yl)propan-2-yl)phenyl)-1H-pyrazol-5-yl) pyrimidine]
≥ 5 µM	≥ 5 µM	–	C[C@H](Sc1nncn1C)c1cccc(-n2ncc(-c3ccc(C(=O)O)cc3)n2)c1 [Example 80, (S)-4-(2-(3-(1-(4-methyl-4H-1,2,4-triazol-3-ylthio)ethyl)phenyl)-2H-1,2,3-triazol-4-yl)benzoic acid]
0.1 to 1 µM	0.1 to 1 µM	–	C[C@H](Sc1nncn1C)c1cccc(-n2ncc(-c3ccc(C#N)cc3)n2)c1 [Example 88, (S)-4-(2-(3-(1-(4-methyl-4H-1,2,4-triazol-3-ylthio)ethyl)phenyl)-2H-1,2,3-triazol-4-yl)benzonitrile]
< 0.1 µM	< 0.1 µM	–	C[C@H](Cc1nncn1C)c1cccc(-c2n[nH]c3c(CN4CC[C@H](F)C4)cc(C(F)(F)F)nc23)c1 [Example 113, 3-[(2R)-2-[3-(7-[[(3S)-3-fluoropyrrolidin-1-yl]methyl]-5-(trifluoromethyl)-1H-pyrazolo[4,3-b]pyridin-3-yl)phenyl]propyl]-4-methyl-4H-1,2,4-triazole]
0.1 to 1 µM	0.1 to 1 µM	–	C[C@H](Sc1nncn1C)c1cccc(-n2ncc(-c3cccc(C(N)=O)c3)n2)c1 [Example 95, (S)-3-(2-(3-(1-(4-methyl-4H-1,2,4-triazol-3-ylthio)ethyl)phenyl)-2H-1,2,3-triazol-4-yl)benzamide]
–	≥ 5 µM	–	C[C@H](Sc1nncn1C)c1cccc(NC(=O)NC2CCCCC2)c1 [Example 161, (S)-1-cyclohexyl-3-(3-(1-((4-methyl-4H-1,2,4-triazol-3-yl)thio)ethyl)phenyl)urea]
–	≥ 5 µM	–	C[C@H](Sc1nncn1C)c1cccc(NC(=O)NC2CCCN(c3cccnn3)C2)c1 (stereo partly drawn) [Example 129, 1-(3-((S)-1-((4-methyl-4H-1,2,4-triazol-3-yl)thio)ethyl)phenyl)-3-(1-(pyridazin-3-yl)piperidin-3-yl)urea]
≥ 5 µM	≥ 5 µM	–	CC(Sc1nncn1C)c1ccnc(-n2ncc(-c3ccccc3)n2)c1 (centres unmarked) [Example 101, 4-(1-((4-methyl-4H-1,2,4-triazol-3-yl)thio)ethyl)-2-(4-phenyl-2H-1,2,3-triazol-2-yl)pyridine]
–	≥ 5 µM	–	CCN1CCc2nc(NC(=O)Nc3cccc([C@H](C)Sc4nncn4C)c3)sc2C1 [Example 137, (S)-1-(5-ethyl-4,5,6,7-tetrahydrothiazolo[5,4-c]pyridin-2-yl)-3-(3-(1-((4-methyl-4H-1,2,4-triazol-3-yl)thio)ethyl)phenyl)urea]
≥ 5 µM	≥ 5 µM	–	C[C@H](Sc1nncn1C)c1cccc(-n2cc(-c3cccc(CO)c3)nn2)c1 [Example 92, (S)-(3-(1-(3-(1-(4-methyl-4H-1,2,4-triazol-3-ylthio)ethyl)phenyl)-1H-1,2,3-triazol-4-yl)phenyl)methanol]
≥ 5 µM	≥ 5 µM	–	CNC(=O)c1cccc(-c2cn(-c3cccc([C@H](C)Sc4nncn4C)c3)nn2)c1 [Example 94, (S)—N-methyl-3-(1-(3-(1-(4-methyl-4H-1,2,4-triazol-3-ylthio)ethyl)phenyl)-1H-1,2,3-triazol-4-yl)benzamide]
–	≥ 5 µM	–	C[C@H](Sc1nncn1C)c1cccc(NC(=O)Nc2ccc(N3CCOCC3=O)cc2)c1 [Example 147, (S)-1-(3-(1-(4-methyl-4H-1,2,4-triazol-3-ylthio)ethyl)phenyl)-3-(4-(3-oxomorpholino)phenyl)urea]

Second part, the compound before the results:

SMILES	IC50 [1]	IC50 [2]	IC50 (low conditions: 50 mM NaCl, 30 nM Src kinase, 12 nM Cbl-b, read-out: Cbl-b activity IC50)
C[C@H](Cc1nncn1C)c1cccc(NC(=O)N2CCC(C(=O)O)(C(F)(F)F)C2)c1 (stereo partly drawn) [Example 15, 1-((3-((R)-1-(4-methyl-4H-1,2,4-triazol-3-yl)propan-2-yl)phenyl)carbamoyl)-3-(trifluoromethyl)pyrrolidine-3-carboxylic acid]	1 to 5 µM	1 to 5 µM	–
C[C@H](Sc1nncn1C)c1cccc(NC(=O)N2CCc3ccccc32)c1 [Example 7, (S)—N-(3-(1-((4-methyl-4H-1,2,4-triazol-3-yl)thio)ethyl)phenyl)indoline-1-carboxamide]	–	≥ 5 µM	–
C[C@H](Cc1nncn1C)c1cccc(NC(=O)N2CC(C)(C)Oc3cccnc32)c1 [Example 19, (R)-2,2-dimethyl-N-(3-(1-(4-methyl-4H-1,2,4-triazol-3-yl)propan-2-yl)phenyl)-2,3-dihydro-4H-pyrido[3,2-b][1,4]oxazine-4-carboxamide]	< 0.1 µM	< 0.1 µM	–
C[C@H](Sc1nncn1C)c1cccc(NC(=O)N2CCC(C(F)F)C2)c1 (stereo partly drawn) [Example 47, 3-(difluoromethyl)-N-(3-((S)-1-((4-methyl-4H-1,2,4-triazol-3-yl)thio)ethyl)phenyl)pyrrolidine-1-carboxamide]	–	≥ 5 µM	–
CC(Sc1nncn1C)c1cccc(C(=O)Nc2ccccn2)c1 (centres unmarked) [Example 34, 3-(1-((4-methyl-4H-1,2,4-triazol-3-yl)thio)ethyl)-N-(pyridin-2-yl)benzamide]	–	–	≥ 5 µM
C[C@H](Cc1nncn1C)c1cccc(C(=O)Nc2cccc(C(F)(F)F)n2)c1 [Example 18, (R)-3-(1-(4-methyl-4H-1,2,4-triazol-3-yl)propan-2-yl)-N-(6-(trifluoromethyl)pyridin-2-yl)benzamide]	≥ 5 µM	≥ 5 µM	–
CC1CCN(C(=O)Nc2cccc([C@H](C)Sc3nncn3C)c2)C1 (stereo partly drawn) [Example 41, 3-methyl-N-(3-((S)-1-((4-methyl-4H-1,2,4-triazol-3-yl)thio)ethyl)phenyl)pyrrolidine-1-carboxamide]	–	≥ 5 µM	–
Cn1cnnc1CC1(c2cccc(NC(=O)N3CC4(CCNC4)Oc4cccnc43)c2)COC1 (centres unmarked) [Example 26, N-(3-(3-((4-methyl-4H-1,2,4-triazol-3-yl)methyl)oxetan-3-yl)phenyl)spiro[pyrido[3,2-b][1,4]oxazine-2,3′-pyrrolidine]-4(3H)-carboxamide]	–	< 0.1 µM	–
CC(Sc1nncn1C)c1cccc(-c2cc(-c3ccccn3)no2)c1 (centres unmarked) [Example 70, 5-(3-(1-((4-methyl-4H-1,2,4-triazol-3-yl)thio)ethyl)phenyl)-3-(pyridin-2-yl)isoxazole]	≥ 5 µM	≥ 5 µM	–
C[C@H](Sc1nncn1C)c1cccc(NC(=O)N(C)C2CCC2)c1 [Example 49, (S)-1-cyclobutyl-1-methyl-3-(3-(1-((4-methyl-4H-1,2,4-triazol-3-yl)thio)ethyl)phenyl)urea]	–	≥ 5 µM	–
C[C@H](Sc1nncn1C)c1cccc(-n2ncc(-c3ccc(Cl)cc3)n2)c1 [Example 72, (S)-4-(4-chlorophenyl)-2-(3-(1-((4-methyl-4H-1,2,4-triazol-3-yl)thio)ethyl)phenyl)-2H-1,2,3-triazole]	1 to 5 µM	1 to 5 µM	–
